Measurements from PMC5053523, “In Vitro Antibacterial Activity of Rhodanine Derivatives against Pathogenic Clinical Isolates” (PLoS ONE, 2016).
Where a name gives a salt, the structure may show the parent alone. Read-outs that look alike come from different tables or passages of the source.

Experiments:
[1] = system: vancomycin resistant enterococci (VRE) E. faecalis; experiment: Broth microdilution MIC/MBC, VRE E. faecalis; type: cell-based
[2] = system: vancomycin resistant enterococci (VRE) E. faecium; experiment: Broth microdilution MIC/MBC, VRE E. faecium; type: cell-based
[3] = system: vancomycin resistant enterococci (VRE); experiment: Broth microdilution MIC50/MIC90, VRE panel; type: cell-based; details: Enterococcus, VRE
[4] = system: Vancomycin Resistant Staphylococcus aureus (VRSA); experiment: Broth microdilution MIC/MBC, VRSA; type: cell-based; details: VRSA
B. cereus = experiment: Broth microdilution MIC/MBC, B. cereus; type: cell-based
From the text: The broth microdilution technique was used, followed by subculturing on agar plates that were rhodanine—free.

B. licheniformis = experiment: Broth microdilution MIC/MBC, B. licheniformis; type: cell-based; details: Bacillus licheniformis
Bacillus Strains = experiment: Broth microdilution MIC50/MIC90 and MIC range, Bacillus strains panel; type: cell-based, Bacillus spp.; details: 10 Bacillus strains
From the text: (§1) The broth microdilution technique was used, followed by subculturing on agar plates that were rhodanine—free. […] The MICs reported represent the lowest concentration of each compound necessary to inhibit bacterial growth and the MBCs represent the lowest concentration required to reduce the initial bacterial inoculum by ≥ 99.9%.

Clostridium difficile = experiment: MIC against Clostridium difficile, anaerobic broth dilution; type: cell-based; details: Clostridioides difficile
Procedure: Clinical isolates of C. difficile were cultured on anaerobic blood agar and incubated anaerobically using container gas pack system at 37° C for 48 hours. The colonies were then suspended in pre-reduced phosphate buffered saline (PBS) and adjusted to 0.5 McFarland standard then diluted 1:300 in pre-reduced Supplemented Brain Heart Infusion broth. The bacterial suspension was then transferred to each well of 96-well plates, the drugs were added to the first row of wells in the required concentrations and serially diluted along the plates. The plates were incubated again anaerobically using container gas pack system at 37° C for 48 hours. The (MIC) recorded was the lowest concentration of the drug showing no visible growth of the bacteria.

Mycobacterium smegmatis = experiment: Broth microdilution MIC/MBC, Mycobacterium smegmatis; type: cell-based; details: Mycolicibacterium smegmatis, ATCC14468
[5] = system: established methicillin-resistant S. epidermidis biofilm (ATCC 35984, NRS 101); experiment: Microtiter dish biofilm eradication assay (crystal violet); type: cell-based, Staphylococcus epidermidis; details: high concentrations (up to 8 X MIC), 24 h
Procedure: We used S. epidermidis ATCC 35984 (NRS 101), a high-slime producer isolated in septicemic patients, with colonized intravascular catheters from Tennessee, USA [10]. This strain is a multi-drug resistant strain, showing resistance to methicillin, erythromycin, kanamycin, gentamicin, clindamycin and trimethoprim. Briefly, an overnight culture of biofilm—producing MRSE was diluted 1:100 in a fresh medium containing 1% glucose in a 96-well tissue-culture treated plate. Bacteria were incubated at 37°C for 24 h to permit the formation of an adherent biofilm. The medium was removed and the biofilm was washed with PBS. Antibacterial drugs (vancomycin and linezolid) and rhodanine 2, at indicated concentration, were added and incubated again at 37°C for 24 h. Plates were washed again and biofilms were stained with 0.1% (wt/vol) crystal violet. Plates were washed with PBS, air-dried and biofilm mass was dissolved using 95% ethanol. The intensity of crystal violet was measured using a micro plate reader (SpectraMax i3x; Molecular Devices, Sunnyvale, CA, USA). Data are presented as the percent biofilm mass reduction in treated groups in relation to untreated wells.

MRSA USA300 = experiment: MIC against MRSA USA300 with and without 4% human serum albumin; type: cell-based, Staphylococcus aureus; details: Staphylococcus aureus, read-out: MIC against MRSA USA300
Procedure: as §1, with “The minimum inhibitory concentration (MIC) and the minimum bactericidal concentration (MBC) of rhodanine compounds 1 to 7 were determined against various Gram-positive and Gram-negative pathogens (S1 Table) following the guidelines of the Clinical and Laboratory Standards Institute (CLSI)[4]. The broth” for “The broth”
The antimicrobial activity of rhodanine compounds in the presence of 4% human serum albumin (HSA) was tested against MRSA USA300. The MICs of rhodanine compounds and control antibiotics (vancomycin and daptomycin) were tested as described in the methods above using tryptic soy broth spiked with 4% HSA. We also synthesized and tested three more compounds, ethyl ester and amide of rhodanine 2 (Rh 8 and Rh 10, respectively) and ethyl ester of rhodanine 3 (Rh 9) to determine the influence of a carboxyl group modification toward anti-MRSA activity and human serum albumin (HSA) binding.

Compound: CN[C@H](CC(C)C)C(=O)N[C@H]1C(=O)N[C@@H](CC(N)=O)C(=O)N[C@H]2C(=O)N[C@H]3C(=O)N[C@H](C(=O)N[C@H](C(=O)O)c4cc(O)cc(O)c4-c4cc3ccc4O)[C@H](O)c3ccc(c(Cl)c3)Oc3cc2cc(c3O[C@@H]2O[C@H](CO)[C@@H](O)[C@H](O)[C@H]2O[C@H]2C[C@](C)(N)[C@H](O)[C@H](C)O2)Oc2ccc(cc2Cl)[C@H]1O [Vancomycin, vancomycin hydrochloride, reference compound]
- MIC [1]: > 64 µM
- MIC ([1]; E. faecalis ERV103 HM-934): > 64/— μM
- MIC ([1]; E. faecalis NR31972 Strain SF 28073): > 64/— μM
- MIC ([1]; E. faecalis S613 HM-334): > 64/— μM
- MIC ([1]; E. faecalis TX0104 HM-201): > 64/— μM
- MIC [2]: > 64 µM
- MIC ([2]; E. faecium E417 HM-965): > 64/— μM
- MIC ([2]; E. faecium E1071 NR-28978): > 64/— μM
- MIC ([2]; E. faecium HM 968 Strain ERV102): > 64/— μM
- MIC ([2]; E. faecium NR31914 Strain E0120): > 64/— μM
- MIC50 [3]: > 64 µM
- MIC90 [3]: > 64 µM
- MBC [4]: > 64 µM
- MIC50 [4]: > 64 µM
- MIC90 [4]: > 64 µM
- MIC ([4]; VRSA 1): > 64 µM
- MIC ([4]; VRSA 2): > 16 µM
- MIC ([4]; VRSA 3a): > 16 µM
- MIC ([4]; VRSA 3b): > 16 µM
- MIC ([4]; VRSA 4): > 64 µM
- MIC ([4]; VRSA 5): 64 µM
- MIC ([4]; VRSA 6): > 64 µM
- MIC ([4]; VRSA 7): > 64 µM
- MIC ([4]; VRSA 8): > 64 µM
- MIC ([4]; VRSA 9): > 64 µM
- MIC ([4]; VRSA 10): > 64 µM
- MIC ([4]; VRSA 11a): > 64 µM
- MIC ([4]; VRSA 11b): > 64 µM
- MIC ([4]; VRSA 12): > 64 µM
- MIC ([4]; VRSA 13): > 64 µM
- MBC (B. cereus; B. cereus BAG1O-2 NR-28582): < 0.5/< 0.5 μM
- MIC (B. cereus; B. cereus BAG1O-2 NR-28582): < 0.5/< 0.5 μM
- MBC (B. cereus; B. cereus BAG1X1-1 NR-28575): < 0.5/< 0.5 μM
- MIC (B. cereus; B. cereus BAG1X1-1 NR-28575): < 0.5/< 0.5 μM
- MBC (B. cereus; B. cereus G9241 NR-9564): < 0.5/< 0.5 μM
- MIC (B. cereus; B. cereus G9241 NR-9564): < 0.5/< 0.5 μM
- MBC (B. cereus; B. cereus VD014 NR-22141): < 0.5/< 0.5 μM
- MIC (B. cereus; B. cereus VD014 NR-22141): < 0.5/< 0.5 μM
- MBC (B. cereus; B. cereus VD115 NR-22148): < 0.5/< 0.5 μM
- MIC (B. cereus; B. cereus VD115 NR-22148): < 0.5/< 0.5 μM
- MBC (B. cereus; B. cereus VD148 NR-22150): < 0.5/< 0.5 μM
- MIC (B. cereus; B. cereus VD148 NR-22150): < 0.5/< 0.5 μM
- MBC (B. cereus; Bacillus cereus, B. cereus BAG1X2-1 NR-28578, read-out: MBC): < 0.5 µM
- MIC (B. cereus; Bacillus cereus, B. cereus BAG1X2-1 NR-28578, read-out: MIC): < 0.5 µM
- MBC (B. cereus; Bacillus cereus, NRS201, B. cereus NRS 201 NR-2488, read-out: MBC): < 0.5 µM
- MIC (B. cereus; Bacillus cereus, NRS201, B. cereus NRS 201 NR-2488, read-out: MIC): < 0.5 µM
- MBC (B. licheniformis; NCIB9375): 2 µM
- MIC (B. licheniformis; NCIB9375): < 0.5 µM
- MBC (B. licheniformis; NRS712): < 0.5 µM
- MIC (B. licheniformis; NRS712): < 0.5 µM
- MIC50 (Bacillus Strains): < 0.5 µM
- MIC90 (Bacillus Strains): < 0.5 µM
- MIC (Clostridium difficile; C. difficile HM-88): 0.5 µM
- MIC (Clostridium difficile; C. difficile HM-745): 0.125 µM
- MIC (Clostridium difficile; C. difficile HM-746): 0.25 µM
- MIC (Clostridium difficile; C. difficile Isolate-1 NR-13427): 1 µM
- MIC (Clostridium difficile; C. difficile Toxigenic Strain P8 NR-32888): 0.5 µM
- MBC (Mycobacterium smegmatis): 16 µM
- MIC (Mycobacterium smegmatis): 2 µM
- biofilm mass reduction [5]: not significantly decreased
- MIC (MRSA USA300): 0.5 µM
